Measurements: patent US20230123104A1, “CRYSTAL OF TRICYCLIC COMPOUND ACTING ON CRBN PROTEIN AND PREPARATION METHOD THEREFOR” (CHIA TAI TIANQING PHARMACEUTICAL GROUP CO., LTD., priority 2020, published 2023)

What was measured:
Assay type in all cases: physicochemical
[1] = Hygroscopicity study by dynamic vapor sorption (DVS)
Method: In the present application, dynamic vapor sorption (DVS) analysis is performed under the following conditions: instrument: SMS DVS Advantage-1; equilibration: dm/dt=0.01%/min (shortest: 60 min, longest: 180 min); drying: drying at 0% RH for 120 min; RH (%) test gradient: 10%; range of RH (%) test gradient: 0%-90%-0%.
The evaluation of hygroscopicity was classified as follows:
Dynamic Vapor Sorption Apparatus SMS DVS Advantage-1
10-15 mg of the crystalline form A of the compound of formula (I) was placed in a DVS sample tray and tested.

[2] = Stability test of crystalline form A in different solvents (XRPD); conditions: methanol, ethanol, acetone, acetonitrile, tetrahydrofuran, methyl tert-butyl ether, ethyl acetate, water, acetonitrile or acetone with water
Method: 50-mg portions of the crystalline form A of the compound of formula (I) were weighed into different 2.0 mL glass vials, and appropriate amounts of single or mixed solvents in the table below were added. After the addition of magnetic stir bars, the samples were stirred on a magnetic stirrer (25° C./50° C., 700 rpm) in the dark. The 25° C. samples were stirred for 1 week and centrifuged, and the resulting solid samples were dried in a vacuum oven at 40° C. overnight. The 50° C. samples were stirred for 2 days and centrifuged in a centrifuge tube with a filter membrane, and the solvent in the lower layer was discarded. The samples were let stand in a fume hood for 1 h so that they were air-dried. The resulting dried samples were subjected to XRPD analysis to determine their crystalline forms.

[3] = Solid stability test at high temperature, at high humidity, and in intense light
Method: According to the “Guidelines for the Stability Test of APIs and Preparations” (General Principles 9001 of the Four Parts of the Chinese Pharmacopoeia, 2020 Edition), the stability of the crystalline form A of the compound of formula (I) was investigated at high temperature (60° C., open), at high humidity (room temperature/relative humidity at 92.5%, open), and in intense light (5000±500 Lux, 90 μw/cm^2, open).
1.5 g of the crystalline form A of the compound of formula (I) was weighed into an open measuring flask and spread out to form a thin layer. The sample for high temperature test was placed in an electrothermal drying oven and investigated, and the sample for high humidity test was placed in an integrated drug stability test chamber and investigated. Samples were taken on days 5, 10 and 30 for analysis, and the results were compared with the preliminary results of day 0. The sample for intense light test was placed in an open flask. Samples were taken on days 5 and 10 for analysis, and the results were compared with the preliminary results of day 0.

[4] = Solid stability test under accelerated conditions (40° C./relative humidity at 75%, sealed)
Method: According to the “Guidelines for the Stability Test of APIs and Preparations” (General Principles 9001 of the Four Parts of the Chinese Pharmacopoeia, 2020 Edition), the stability of the crystalline form A of the compound of formula (I) was investigated under accelerated conditions at high temperature and high humidity (40° C./relative humidity at 75%, sealed).
1.5 g of the crystalline form A of the compound of formula (I) was weighed into a double-layer low-density polyethylene bag. Each layer a the low-density polyethylene bag was sealed with a binding tie, and the bag was put into an aluminum foil bag. Samples were taken in months 1, 2, 3 and 6 for analysis, and the results were compared with the preliminary results of day 0. This experiment was repeated twice, each with a different batch of the crystalline form A of the compound of formula (I).

[5] = Solid stability test under long-term conditions (25° C./relative humidity at 60%, sealed)
Method: According to the “Guidelines for the Stability Test of APIs and Preparations” (General Principles 9001 of the Four Parts of the Chinese Pharmacopoeia, 2020 Edition), the stability of the crystalline form A of the compound of formula (I) was investigated under long-terns conditions (25° C./relative humidity at 60%, sealed).
1.5 g of the crystalline form A of the compound of formula (I) was weighed into a double-layer low-density polyethylene bag. Each layer of the low-density polyethylene bag was sealed with a binding tie, and the bag was put into an aluminum foil hag. Samples were taken in months 3 and 6 for analysis, and the results were compared with the preliminary results of day 0. This experiment was repeated twice, each with a different batch of the crystalline form A of the compound of formula (I).

[6] = High humidity (room temperature/relative humidity 92.5%, open), Day 5
[7] = High humidity (room temperature/relative humidity 92.5%, open), Day 10
[8] = High humidity (room temperature/relative humidity 92.5%, open), Day 30
[9] = High temperature (60° C., open), Day 5
[10] = High temperature (60° C., open), Day 10
[11] = High temperature (60° C., open), Day 30
[12] = Intense light (5000 ± 500 Lux, 90 μw/cm^2, open), Day 5
[13] = Intense light (5000 ± 500 Lux, 90 μw/cm^2, open), Day 10
[14] = Batch 1, 40° C./relative humidity at 75%, sealed, Month 1
[15] = Batch 1, 40° C./relative humidity at 75%, sealed, Month 2
[16] = Batch 1, 40° C./relative humidity at 75%, sealed, Month 3
[17] = Batch 1, 40° C./relative humidity at 75%, sealed, Month 6
[18] = Batch 2, 40° C./relative humidity at 75%, sealed, Month 1
[19] = Batch 2, 40° C./relative humidity at 75%, sealed, Month 2
[20] = Batch 2, 40° C./relative humidity at 75%, sealed, Month 3
[21] = Batch 2, 40° C./relative humidity at 75%, sealed, Month 6
[22] = Batch 1, 25° C./relative humidity at 60%, sealed, Month 3
[23] = Batch 1, 25° C./relative humidity at 60%, sealed, Month 6
[24] = Batch 2, 25° C./relative humidity at 60%, sealed, Month 3
[25] = Batch 2, 25° C./relative humidity at 60%, sealed, Month 6

SMILES: O=C1CCC(c2noc3ccc4[nH]ccc4c23)C(=O)N1 (stereo not drawn)
- hygroscopicity classification ([1]; 25° C., 80% RH, DVS): no or almost no hygroscopicity
- crystalline form after DVS test ([1]; after DVS): remained unchanged
- stability in solvents (conclusion) [2]: good stability
- Content ([3]; Day 0): 98.9%
- Total impurities ([3]; Day 0): <0.05%
- Content [3, 6]: 100.7%
- Total impurities [3, 6]: <0.05%
- Content [3, 7]: 100.2%
- Total impurities [3, 7]: <0.05%
- Content [3, 8]: 100.4%
- Total impurities [3, 8]: <0.05%
- Content [3, 9]: 99.9%
- Total impurities [3, 9]: <0.05%
- Content [3, 10]: 100.2%
- Total impurities [3, 10]: <0.05%
- Content [3, 11]: 100.2%
- Total impurities [3, 11]: <0.05%
- Content [3, 12]: 100.7%
- Total impurities [3, 12]: <0.05%
- Content [3, 13]: 100.0%
- Total impurities [3, 13]: <0.05%
- solid stability (conclusion) ([3]; at high temperature, at high humidity, and in intense light): good stability
- Content [4, 14]: 100.1%
- Total impurities [4, 14]: 0.05%
- Content [4, 15]: 100.4%
- Total impurities [4, 15]: <0.05%
- Content [4, 16]: 100.4%
- Total impurities [4, 16]: <0.05%
- Content [4, 17]: 98.1%
- Total impurities [4, 17]: <0.05%
- Content ([4]; Batch 1, Day 0): 98.9%
- Total impurities ([4]; Batch 1, Day 0): <0.05%
- Content [4, 18]: 100.0%
- Total impurities [4, 18]: 0.05%
- Content [4, 19]: 100.2%
- Total impurities [4, 19]: <0.05%
- Content [4, 20]: 100.2%
- Total impurities [4, 20]: <0.05%
- Content [4, 21]: 99.2%
- Total impurities [4, 21]: <0.05%
- Appearance ([4]; Batch 2, Day 0): White powder
- Content ([4]; Batch 2, Day 0): 100.2%
- Total impurities ([4]; Batch 2, Day 0): <0.05%
- solid stability (conclusion) ([4]; accelerated conditions at 40° C. with relative humidity at 75%): good stability
- Content [5, 22]: 99.8%
- Total impurities [5, 22]: <0.05%
- Content [5, 23]: 99.2%
- Total impurities [5, 23]: <0.05%
- Content ([5]; Batch 1, Day 0): 98.9%
- Total impurities ([5]; Batch 1, Day 0): <0.05%
- Appearance [5, 24]: White powder
- Content [5, 24]: 100.4%
- Total impurities [5, 24]: <0.05%
- Appearance [5, 25]: White powder
- Content [5, 25]: 100.4%
- Total impurities [5, 25]: <0.05%
- Appearance ([5]; Batch 2, Day 0): White powder
- Content ([5]; Batch 2, Day 0): 100.2%
- Total impurities ([5]; Batch 2, Day 0): <0.05%
- solid stability (conclusion) ([5]; long-term conditions at 25° C. with relative humidity at 60%): good stability
